Data taken from patent US20260097073A1, “PROCESS FOR THE PREPARATION OF TUNGSTEN (VI) SALT HYDRATES” (OXOLIFE, S.L., priority 2022, published 2026).

Columns and labels:
[1] = Drying of the hydrate salt: loss of the water molecules (IR); assay type: physicochemical
Protocol: In this case, the precipitation was performed by adding 2.0 volumes of either MeOH, EtOH, acetone or IPA at room temperature. After overnight stirring at room temperature, the suspensions were filtered at room temperature, and the cakes were washed by percolation with 0.4 volumes of H2O/solvent (1:1), and with 0.4 volumes of the corresponding solvent. […]
This phenomenon was observed when recording the IR spectra of the synthesized and dried products, as none of them show the stretching and bending bands typical of water molecules (FIG. 2).

[2] = Stability test: loss on drying with time; assay type: physicochemical
Description: The present inventors confirmed the stability of the hydrate resulting from the process of the invention determining the loss on drying with time.
To that end a well-mixed sample of the sodium tungstate hydrate resulting from Example 2, was subjected to the following protocol. Dry clean glass-stopper, shallow weighing bottle under the same conditions to be employed in the determination. Cool to room temperature in a desiccator and take the weight accurately (W1) g. Transfer to the bottle 1 g of the sample, cover it and accurately weigh the bottle and the contents (W2) g. Place the loaded bottle in the drying chamber (oven), remove the stopper and leave it also in the chamber. Dry the sample to the specified time and temperature to a constant mass (105° C.). After drying is completed, open the drying chamber, close the bottle promptly and allow it to cool to room temperature (where applicable) in a desiccator before weighing. Weigh the bottle and the contents (W3) g. Calculation:
The loss on drying should be not more than 15% (w/w).

- fraction of the starting salt that lost the molecules of water ([1]; vacuum dried at a mild temperature of about 50° C.): ~94%
- loss on drying with time ([2]; 6-month 40° C./75% HR): the loss was maintained
- loss on drying with time ([2]; 18-month test at 25° C./60% HR): the loss was maintained
- loss on drying ([2]; sodium tungstate hydrate resulting from Example 2, dried at 105° C. to constant mass, limit not more than 15% (w/w)): below 15%
Compound: O.O.[Na+].[Na+].[O]=[W](=[O])([O-])[O-] [Na2WO4·2H2O, sodium tungstate dihydrate]
- stability of the waters of hydration on drying ([1]; drying processes at 100-110° C., IR spectra): dehydration processes of the tungsten salt were detected
